Test results as given in patent US12552815B2, “Boronic acid derivatives and synthesis, polymorphic forms, and therapeutic uses thereof” (QPEX BIOPHARMA, INC., priority 2020, dated 2026).

Experiment: Dynamic vapor sorption (DVS) analysis
Type: physicochemical
Settings: for hygroscopicity / water uptake by dynamic vapor sorption (DVS): 25° C., 10% RH steps from 5 to 95% RH and from 95 to 5% RH
Experimental: DVS analysis was carried out using a TA Instruments Q5000 Dynamic Vapor Sorption analyzer. The instrument was calibrated with standard weights and a sodium bromide standard for humidity. Approximately 20 mg of sample was loaded into a metal-coated quartz pan for analysis. The sample was analyzed at 25° C. with a maximum equilibration time of one hour in 10% relative humidity (RH) steps from 5 to 95% RH (adsorption cycle) and from 95 to 5% RH (desorption cycle). The movement from one step to the next occurred either after satisfying the equilibrium criterion of 0.01% weight change or, if the equilibrium criterion was not met, after one hour. The percent weight change values were calculated using Microsoft Excel®. The temperature for the DVS analysis can impact the outcome of the results.
Differential Scanning Calorimetry (5° C./min), Thermogravimetric analysis (5° C./min), and Dynamic Vapor Sorption (stepwise RH decrease from 45% to 0% at 50° C.) data for highly crystalline Form A of Compound I′ prepared analogously to the crystallization method above is shown in FIGS. 27-29, respectively.

SMILES | hygroscopicity / water uptake by dynamic vapor sorption (DVS) | gain/loss of water by dynamic vapor sorption (DVS), highly crystalline sample (relative humidity range of 5% to 75%, FIG. 29, stepwise RH decrease from 45% to 0% at 50° C.)
CCOC(=O)c1c(F)ccc2c1O[B-]1(C=C2)O[C@@H](c2ccccc2)[C@H](C)[NH+]1C (stereo partly shown) [Compound A-3, pseudoephedrine complex of ethyl 7-fluoro-2-hydroxy-2H-benzo[e][1,2]oxaborinine-8-carboxylate] | not hygroscopic | 
CCOC(=O)c1c(F)ccc2c1O[B-]1(O[C@@H](c3ccccc3)[C@H](C)[NH+]1C)[C@@H]1C[C@H]21 (stereo partly shown) [Compound A-4] | not hygroscopic | 
O=C([O-])c1c(F)ccc2c1O[B-](O)(O)[C@@H]1C[C@H]21.[Na+].[Na+] [Form A of Compound I′] | hygroscopic | resists gain/loss of water
